One compound from ChEMBL document CHEMBL5120900, “Structure-Based Discovery of a Series of NSD2-PWWP1 Inhibitors” (J Med Chem, 2022) can be followed below.

pIC50: −log10 of the molar value. Activity calls are given as the source filed them. No cut-off for these calls is given here.

Experiment [1] deals with T1, Histone-lysine N-methyltransferase NSD2 (Homo sapiens, UniProt O96028).
T1 sequence (O96028 whole entry): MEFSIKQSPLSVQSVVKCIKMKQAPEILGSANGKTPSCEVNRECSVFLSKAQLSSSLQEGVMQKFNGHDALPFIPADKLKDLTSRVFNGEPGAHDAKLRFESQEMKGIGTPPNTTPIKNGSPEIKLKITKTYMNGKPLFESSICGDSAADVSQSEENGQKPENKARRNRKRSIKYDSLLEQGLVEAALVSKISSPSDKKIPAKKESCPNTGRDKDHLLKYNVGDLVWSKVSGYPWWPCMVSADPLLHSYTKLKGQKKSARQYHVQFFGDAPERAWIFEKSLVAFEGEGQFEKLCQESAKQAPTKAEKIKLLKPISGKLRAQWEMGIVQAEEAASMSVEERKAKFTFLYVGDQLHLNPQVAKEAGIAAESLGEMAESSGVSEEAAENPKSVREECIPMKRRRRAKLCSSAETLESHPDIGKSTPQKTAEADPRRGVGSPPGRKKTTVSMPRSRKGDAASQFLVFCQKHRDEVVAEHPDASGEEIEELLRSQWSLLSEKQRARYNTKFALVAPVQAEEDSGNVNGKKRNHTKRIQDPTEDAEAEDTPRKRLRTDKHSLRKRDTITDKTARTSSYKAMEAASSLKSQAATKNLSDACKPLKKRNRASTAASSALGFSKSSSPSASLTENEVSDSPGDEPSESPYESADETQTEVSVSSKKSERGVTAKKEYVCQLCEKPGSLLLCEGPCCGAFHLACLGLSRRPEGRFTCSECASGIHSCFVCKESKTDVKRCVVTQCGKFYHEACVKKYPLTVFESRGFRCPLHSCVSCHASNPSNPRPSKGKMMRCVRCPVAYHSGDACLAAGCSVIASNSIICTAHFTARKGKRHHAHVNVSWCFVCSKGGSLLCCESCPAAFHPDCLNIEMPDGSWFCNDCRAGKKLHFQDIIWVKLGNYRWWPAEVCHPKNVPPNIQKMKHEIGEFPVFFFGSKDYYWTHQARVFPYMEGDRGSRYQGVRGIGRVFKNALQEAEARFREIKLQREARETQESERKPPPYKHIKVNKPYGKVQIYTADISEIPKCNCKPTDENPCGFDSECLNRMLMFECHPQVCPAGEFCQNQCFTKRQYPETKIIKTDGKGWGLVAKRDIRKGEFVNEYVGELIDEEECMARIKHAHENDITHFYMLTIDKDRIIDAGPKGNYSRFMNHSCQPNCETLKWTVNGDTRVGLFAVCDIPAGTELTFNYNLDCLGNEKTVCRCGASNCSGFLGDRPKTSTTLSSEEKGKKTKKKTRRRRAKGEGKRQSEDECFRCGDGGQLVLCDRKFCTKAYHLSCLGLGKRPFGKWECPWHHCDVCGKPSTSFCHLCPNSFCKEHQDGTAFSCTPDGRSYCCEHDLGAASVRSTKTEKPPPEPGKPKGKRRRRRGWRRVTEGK
The experiment in a line: Binding affinity to N-terminal His6/Sumo-tagged NSD2 PWWP1 domain (211 to 350 residues) (unknown origin) expressed in Escherichia coli BL21 (DE3) using ATKAARKSAPATGGV-Lys (me)2-KPHRYRPG polypeptide as substrate incubated for 3 hrs by HTRF assay.

In experiment [2] the target is T2, Histone-lysine N-methyltransferase NSD2 (Homo sapiens) (UniProt O96028).
T2 sequence (whole entry): T1 sequence (O96028 whole entry)
The experiment can be described thus: Binding affinity to His6/Sumo-tagged NSD2 PWWP1 (unknown origin) (208 to 368 residues) expressed in Escherichia coli BL21 (DE3) assessed as increase in melting temperature by thermal shift assay. As to conditions: DDE = dose-dependent effect.

Experiment [3] has as its target T2, Histone-lysine N-methyltransferase NSD2 (Homo sapiens). The experiment in a line: Inhibition of NSD2 in human RS4-11 cells assessed as decrease in RRAS2 gene expression at 10 uM incubated for 72 hrs by RT-PCR analysis. The format is cell-based.
Experiment [4] shares this target. The experiment in a line: Inhibition of NSD2 in human RS4-11 cells assessed as decrease in TGFA gene expression at 10 uM incubated for 72 hrs by RT-PCR analysis. It counts as cell-based.
The target is the same in experiment [5]. The experiment in a line: Inhibition of NSD2 in human KMS-11 cells assessed as decrease in TEMEL2 gene expression at 10 uM incubated for 72 hrs by RT-PCR analysis. It counts as cell-based.
Experiment [6] has the same target. The experiment can be described thus: Inhibition of NSD2 in human KMS-11 cells assessed as decrease in NCAM1 gene expression at 10 uM incubated for 72 hrs by RT-PCR analysis. It counts as cell-based.
A further experiment concerns RS4-11. The experiment can be described thus: Antiproliferative activity against human RS4-11 cells assessed as inhibition of cell proliferation measured after 6 days by CCK8 assay. It counts as functional, cell-based. Conditions: RS4-11, 144 h.
Experiment [7] has as its system MV4-11. The experiment can be described thus: Antiproliferative activity against human MV4-11 cells assessed as inhibition of cell proliferation measured after 6 days by CCK8 assay. The format is functional, cell-based. As to conditions: MV4-11, 144 h.
Experiment [8] concerns KMS-11. The experiment in a line: Antiproliferative activity against human KMS-11 cells assessed as inhibition of cell proliferation measured after 6 days by CCK8 assay. It counts as functional, cell-based. As to conditions: KMS-11, 144 h.
In the next experiment the test system is MM1.S. The experiment in a line: Antiproliferative activity against human MM1.S cells assessed as inhibition of cell proliferation measured after 6 days by CCK8 assay. It counts as functional, cell-based. Conditions: 144 h.
The subject of experiment [9] is KMS-11. The experiment in a line: Induction of apoptosis in human KMS-11 cells assessed as viable cells at 5 uM measured after 72 hrs by Annexin V FITC/PI staining based flow cytometry analysis (reference value: 69.4%). The format is functional. Conditions: read-out: Activity.
Experiment [10] deals with KMS-11. The experiment in a line: Induction of apoptosis in human KMS-11 cells assessed as late apoptotic cells at 5 uM measured after 72 hrs by Annexin V FITC/PI staining based flow cytometry analysis (reference value: 13.3 %). It counts as functional.
The test system of experiment [11] is KMS-11. The experiment can be described thus: Induction of apoptosis in human KMS-11 cells assessed as viable cells at 10 uM measured after 72 hrs by Annexin V FITC/PI staining based flow cytometry analysis (reference value: 69.4%). It counts as functional. Conditions: read-out: Activity.
In experiment [12] the test system is KMS-11. The experiment can be described thus: Induction of apoptosis in human KMS-11 cells assessed as late apoptotic cells at 10 uM measured after 72 hrs by Annexin V FITC/PI staining based flow cytometry analysis (reference value: 13.3 %). It counts as functional.
For experiment [13], the system named is MV4-11. The experiment can be described thus: Induction of apoptosis in human MV4-11 cells assessed as late apoptotic cells at 5 uM measured after 72 hrs by Annexin V FITC/PI staining based flow cytometry analysis (reference value: 3.02%). The format is functional.
Experiment [14] relates to MV4-11. The experiment can be described thus: Induction of apoptosis in human MV4-11 cells assessed as necrotic cells at 5 uM measured after 72 hrs by Annexin V FITC/PI staining based flow cytometry analysis (reference value: […]). It counts as functional.
For experiment [15], the system named is MV4-11. The experiment in a line: Induction of apoptosis in human MV4-11 cells assessed as late apoptotic cells at 10 uM measured after 72 hrs by Annexin V FITC/PI staining based flow cytometry analysis (reference value: 3.02%). The format is functional.
Experiment [16] relates to MV4-11. The experiment can be described thus: Induction of apoptosis in human MV4-11 cells assessed as necrotic cells at 10 uM measured after 72 hrs by Annexin V FITC/PI staining based flow cytometry analysis (reference value: […]). The format is functional.
Experiment [17] deals with MV4-11. The experiment can be described thus: Cell cycle arrest in human MV4-11 cells assessed as increase in accumulation of G0/G1 phase at 5 to 10 uM measured after 24 hrs by PI staining based flow cytometric analysis. It counts as functional. As to conditions: dose 5-10 µM.

As to `Cc1cc(CN2CCC(N)CC2)cc(C)c1-c1ncn(C)c1-c1ccc(C#N)c2ccccc12`, the pIC50 is 6.96 in [1]; 5.20 with RS4-11; 5.65 in the experiment with MV4-11 [7]; 5.07 in the experiment with KMS-11 [8]; 4.96 with MM1.S. Further, the Activity entry was “Dde” in [2]; 16.5% in the experiment with KMS-11 [10]; 32.7% in the experiment with KMS-11 [12]; 2.37% in the experiment on MV4-11 [13]; 0.4% with MV4-11 [14]; 19.8% in the experiment on MV4-11 [15]. For the same compound, the Activity in the experiment with MV4-11 [16] amounted to 1.56%. Also, the inhibition result in [3], in experiment [4], in experiment [5] and in [6] was “Active” each time. Further, the viability at 5 µM with KMS-11 [9] was found to be 61.7%. Besides, the viability at 10 µM in the experiment on KMS-11 [11] stood at 36.8%. In the experiment on MV4-11 [17], the result was Active.
